Where two headings read alike, the source gives them in different places.
Tests used:
[1] = system: Pan T cells isolated from C57BL6 splenocytes; assay: T cell function assays (IFNγ and TNFα in supernatants); format: cell-based, mouse; settings: 0.3 μM compound, 3 days; for IFNγ [pg/mL] anti-CD3/CD28 / TNFα [pg/mL] anti-CD3/CD28: anti-CD3/CD28 stimulation
Experimental: Example 231: T Cell Function Assays Pan T cells were isolated from C57BL6 splenocytes using a MACS Pan T cell isolation kit II (Miltenyi Biotec, Auburn, Calif.) according to the manufacturer's instructions. Isolated T cells (200,000 cells/well in a 96 well flat-bottom plate) were cultured in RPMI 1640 supplemented with 10% FBS, […] 2-mercaptoethanol, 100 U/mL penicillin, and 100 μg/mL streptomycin, and incubated with 0.3 μM compound or DMSO in duplicates. After 1 hour, mouse T cell activator CD3/CD28 Dynabeads (ThermoFisher Scientific, Waltham, Mass.) were added at a 1:5 beads to cells ratio to stimulate the T cells for 3 days. T cells with or without compound were incubated in the absence of T cell activator beads to evaluate if compounds nonspecifically stimulate the T cells. After 3 days of stimulation, supernatants were collected and IFNγ and TNFα in supernatants were assessed using an MSD V-plex assay (Meso Scale Discovery, Rockville, Md.).

[2] = system: IFNγ-induced STAT1 phosphorylation in CD14+ monocytes; assay: Human whole blood pSTAT1 proximal pharmacodynamic (PD) assay; format: cell-based; settings: Monocyte, 3 hours compound, IFNγ 20 minutes
Experimental: Example 230: Human Whole Blood pSTAT1 Proximal Pharmacodynamic (PD) Assay Human blood samples were acquired through internal AbbVie Inc's blood donation program in accordance with AbbVie's Occupational Safety and Health Administration protocols. Blood was collected by venipuncture into sodium heparin coated vacutainer tubes and kept at room temperature for no longer than 1 hour prior to the experiment initiation. Human blood samples (90 μL) were added to the individual wells of 96-well plates containing 10 μL of 10× working stock solutions of increasing concentrations of compounds to achieve final concentrations ranging from 0.025 μM to 500 μM and incubated for 3 hours at 37° C. To induce STAT1 phosphorylation the samples were then treated with recombinant human IFNγ (R&D Systems, Catalog^#285-IF, Minneapolis, Minn.; 100 nM final concentration) for 20 minutes, and 3 μL/well BV421 labeled anti-CD14 surface antibody (Biolegend, San Diego, Calif., Catalog^#301830) was added for 45 minutes before fixation and red blood cell lysis was performed with BD Phosflow Lyse/Fix buffer (BD Biosciences, San Jose, Calif., Catalog^#558049). Cells were subsequently permeabilized on ice by the addition of BD Perm III buffer (BD Biosciences, San Jose, Calif., Catalog^#558050) and stored at -80° C. until use. Before staining, the cells were washed with PBS containing 0.1% BSA. Optim/zed concentrations of BUV395 labeled anti-CD45 (BD Biosciences, San Jose, Calif., Catalog^#563792) and PE labeled anti-phospho-STAT1 ([…]; Invitrogen, Carlsbad, Calif., Catalog^#12-9008-42) antibodies were added to the cell suspensions and incubated for 2 hours. The cells were washed with PBS containing 0.1% BSA and analyzed on a BD LSRFortessaTM X20 flow cytometer (BD Biosciences, San Jose, Calif.) using BD FACSDivaTM software. The data was analyzed using FlowJo V10 analysis software (Flow Jo LLC, Ashland, Oreg.). The amount of STAT phosphorylation was measured by the mean fluorescence intensity (MFI) of pSTAT1 in CD14+monocytes. Compound dose-response curves were determined using a four-parameter logistic-nonlinear regression model from which half maximal effective concentrations (EC50) were calculated. All statistical analyses utilized GraphPad software (San Diego, Calif.).

[3] = system: B16F10 mouse melanoma cells; assay: B16F10 IFNγ-induced cellular growth inhibition assay; format: cell-based; settings: B16-F10, with 0.5 ng/mL IFNγ
Outline: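 B16F10 cells grown in DMEM+10% FBS, with or without 0.5 ng/mL final mouse IFNγ, and dosed in triplicate at 100 μM to 0.001 μM final (0.1% DMSO). Confluence imaged every 6 h for 5 days; percent growth inhibition versus DMSO/with-IFNγ control taken once DMSO/no-IFNγ wells exceeded 95% confluence, giving IC50.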

[4] = read-out: B16F10 Growth Inhibition IC50

| SMILES | IFNγ [pg/mL] anti-CD3/CD28 [1] | TNFα [pg/mL] anti-CD3/CD28 [1] | IFNγ [pg/mL] no stimulation [1] | TNFα [pg/mL] no stimulation [1] | EC50 [2] | IC50 ([3]; read-out: B16F10 GI IC50) | IC50 [3, 4] |
| --- | --- | --- | --- | --- | --- | --- | --- |
| CC(C)(CCN[C@@H]1CCc2cc(O)c(N3CC(=O)NS3(=O)=O)c(F)c2C1)C(F)(F)F (single isomer, unassigned) [Compound 177] | 168.2 pg/mL | 113.7 pg/mL | 1.0 pg/mL | 0.7 pg/mL | 2 µM | < 1 µM | 0.14 µM |
| O=C1CN(c2c(O)cc3c(c2F)C[C@H](NCCC(F)F)CC3)S(=O)(=O)N1 (single isomer, unassigned) [Compound 260] | 139.6 pg/mL | 100.0 pg/mL | 0.8 pg/mL | 1.1 pg/mL | 4.4 µM | < 1 µM | 0.18 µM |
| O=C1CN(c2c(O)cc3c(c2F)C[C@@H](NCCC(F)F)CC3)S(=O)(=O)N1 (single isomer, unassigned) [Compound 259] |  |  |  |  | 14.2 µM | 1 to 10 µM | 1.5 µM |
| O=C1CN(c2c(O)cc3c(c2F)C[C@H](NCCCC(F)F)CC3)S(=O)(=O)N1 (single isomer, unassigned) [Compound 199] | 212.9 pg/mL | 147.8 pg/mL | 1.8 pg/mL | 1.1 pg/mL | 0.83 µM | < 1 µM | < 0.05 µM |
| O=C1CN(c2c(O)cc3c(c2F)C[C@H](NCCC2CC2)CC3)S(=O)(=O)N1 (single isomer, unassigned) [Compound 133] | 204.1 pg/mL | 142.0 pg/mL | 1.0 pg/mL | 0.8 pg/mL | 1.6 µM | < 1 µM | 0.22 µM |
| CC(C)CCN[C@@H]1CCc2cc(O)c(N3CC(=O)NS3(=O)=O)c(F)c2C1 (single isomer, unassigned) [Compound 118] | 261.3 pg/mL | 159.1 pg/mL | 1.8 pg/mL | 1.1 pg/mL | 0.58 µM | < 1 µM | 0.11 µM |

Source: US10851073B2, “Protein tyrosine phosphatase inhibitors and methods of use thereof” (Calico Life Sciences LLC, priority 2019, dated 2020)
